In patent publication US7964558B2, “Therapeutic applications for C-peptide” (La Jolla, priority 2003, dated 2011):

How the values were obtained:
[1] = in humans; cited from earlier work
[2] = system: diabetic BB/Wor rats; assay: Nerve conduction velocity in motor and sensory (sciatic-tibial) nerves of diabetic BB/Wor rats; format: in vivo, rat
Procedure: Further technical details can be found in Sima et al., Diabetologia (2001) 44: 889-897.
(§1) Prediabetic male BB/Wor rats were used. Ten rats were used in each group, where the animals were closely age-matched. They were maintained in metabolic cages with free access to water and rat chow. Bodyweight, urine volume and glucosuria were monitored daily to ascertain onset of diabetes. Immediately after the onset of diabetes, administration of C-peptides was commenced in either a single dose/24 hours, three doses/24 hours or as a continuous infusion by osmopump.
(§2) The single dose given was 75 nmol/kg and the three doses given were each 25 nmol/kg. The continuous infusion gave a dose of 75 nmol/kg over a 24 hour period.
Synthetic rat C-peptide II with a purity of more than 98% by HPLC was used (Genosys, Cambridge, UK) dissolved in saline (12 mg/ml). Control rats were given a dose of saline instead of C-peptide.
The nerve conduction velocity in motor and sensory nerves and Na^+K^+ATPase levels in the rats were measured. Baseline nerve conduction velocity was measured within 24 hours of onset of diabetes. […]
(§3) Statistical analysis. The results are presented as means±SE and the significance of differences was calculated by analysis of variance (ANOVA). Group differences were assessed by post hoc analysis using the Student-Newman-Keul test. […]

[3] = dose injected into a rat; expected; cited from earlier work
[4] = system: diabetic BB/Wor rats; assay: Morphometric and teased fibre assessment of sural nerve in diabetic BB/Wor rats; format: in vivo, rat; settings: once daily dose 75 nmol/kg, 8 weeks, compared to diabetic rats (FIG. 5)
Procedure: as §1, §2
(§4) Synthetic rat C-peptide II with a purity of more than 98% by HPLC was used (Genosys, Cambridge, UK) dissolved in saline (12 mg/ml). Control rats were given a dose of saline instead of C-peptide. […]
Teased fibre examinations. A mean of 168±4 myelinated fibres were teased from each sural nerve and scored for specific changes. […] Changes were expressed as percentages of total fibres.
as §3

[5] = system: Na+K+ATPase; assay: Na+K+ATPase activity in the sciatic nerve of diabetic BB/Wor rats; format: in vivo, rat; settings: once daily dose 75 nmol/kg, 8 weeks, sciatic nerve (FIG. 4)
Procedure: as §1, §2, §4
For Na^+/K^+-ATPase activity, nerve samples were homogenized in 2 ml of 0.2 mol/l sucrose and 0.02 mol/l TRIS-HCl at pH 7.5. […] Na^+/K^+-ATPase activity was defined as the difference before and after ouabain and was expressed as μmol ADP formed per gram of wet weight per hour.
as §3

In the case of “C-peptide: Synthetic rat C-peptide II, purity more than 98% by HPLC (Genosys), dissolved in saline; used in Example 1 (EVEDPQVGQVELGAGPGAGSEQTLALEVARQ; Ins Rodent C-peptide)”, the half-life [1] is given as “approximately 30 minutes”, the “effectiveness of once daily dose compared with other dosing regimens” value ([2]; nerve conduction velocity and Na+K+ATPase activity, 75 nmol/kg once daily vs 3 x 25 nmol/kg daily or 75 nmol/kg/24 h continuous infusion by osmopump) is given as “as effective as three daily dose or a continuous infusion” and the nerve conduction velocity ([2]; once daily dose 75 nmol/kg, 8 weeks, diabetic BB/Wor rats, motor and sensory nerves (FIGS. 2, 3)) is given as “clearly and sufficiently improved”. The “time to disappear entirely from circulation” value [3] was 2 to 3 h, the “morphology of cells (morphometric data)” value [4] was “improved morphology” and the “Na+K+ATPase activity” value [5] was “clearly and sufficiently improved”.
